Test results: paper PMC3283556, “The Activities of Current Antimalarial Drugs on the Life Cycle Stages of Plasmodium: A Comparative Study with Human and Rodent Parasites” (PLoS Medicine, 2012)
“Also recorded” adds a separate entry of the source. Where two headings read alike, the source gives them in different places.

What was measured:
Plasmodium oocysts = experiment: Oocyst development / sporogony, Plasmodium species not stated at the place; assay type: in vivo; conditions: for inhibition at 10 µM: Plasmodium, box linked to oocysts, read-out: Inhibition at 10 μM (oocysts, Figure 5)
Experimental: (§1) Membrane feeds were performed as described previously. Briefly, PbGFPcon-infected mouse blood was mixed with compounds, immediately placed into membrane feeders (39°C) and offered for 30 min to 80–100 overnight-starved A. stephensi (SDA 500 strain). After 7–9 d at 19°C/80%RH, mosquito midguts were dissected out. Midguts were fixed with paraformaldehyde and oocyst number was determined microscopically by semi-automated analysis as previously described.
Gametocyte cultures were produced according to the same protocol as the Pf exflagellation assay. Pooled gametocyte cultures were evenly divided between compounds in fresh medium and incubated at 37°C for 24 h. The parasite pellets were then resuspended in fresh RBCs and human serum treated with the compounds to a 50% haematocrit and immediately fed to mosquitoes as described above and then maintained at 27°C/60%RH for 10–12 d before dissection and counting. […]

HepG2 cells = experiment: Growth retardation of HepG2 cells; conditions: for IC50: Homo sapiens, HepG2, read-out: IC50 HepG2
[1] = tested on: P. berghei oocyst formation; experiment: Standard membrane feed assay, P. berghei oocysts in A. stephensi; assay type: in vivo, Plasmodium berghei; conditions: for transmission-blocking effect on P. berghei oocysts (words): 10 µM
Experimental: as §1
Supplementary file pmed.1001169.s001.tif: Figure S1 The transmission-blocking potential of selected compounds against P. berghei in standard membrane feeding assays. All antimalarials were screened at 10 µM in triplicate in independent experiments. The biological content of this assay spans gamete formation through to occyst development all within the gut of the mosquito. […] (TIF) Click here for additional data file.

[2] = tested on: P. falciparum oocyst formation; experiment: Standard membrane feed assay, P. falciparum oocysts in A. stephensi; assay type: in vivo, Plasmodium falciparum; conditions: 10 µM, gametocytes exposed 24 h before feeding
Experimental: Gametocyte cultures were produced according to the same protocol as the Pf exflagellation assay. Pooled gametocyte cultures were evenly divided between compounds in fresh medium and incubated at 37°C for 24 h. The parasite pellets were then resuspended in fresh RBCs and human serum treated with the compounds to a 50% haematocrit and immediately fed to mosquitoes as described above and then maintained at 27°C/60%RH for 10–12 d before dissection and counting.
Figure 3 The transmission-blocking potential of selected antimalarials in three bioassays that cover different phases of Plasmodium vector stage development. (A) Assays examined exflagellation (P. falciparum), ookinete formation (P. berghei), or oocyst formation (P. falciparum). All antimalarials were screened at 10 µM. (B) The biological content of the in vitro P. berghei ookinete assay spans gamete formation, fertilization, zygote development, and ookinete formation. Ookinete formation was insensitive to most of the antimalarials tested. […] (D) The in vitro P. falciparum exflagellation assay exposes mature gametocytes to antimalarials for 24 h before triggering exflagellation. […] All experiments in triplicate. (E) The in vivo P. falciparum oocyst assay differs from the P. berghei oocyst assay in that mature gametocytes were exposed to the antimalarials in culture for 24 h before feeding to mosquitoes. […] NPC1161-B, lumefantrine, halofantrine, and mefloquine +RS isomer were also active. (n = 4–61 observations; average ± standard error of the mean [SEM]).

[3] = tested on: P. yoelii liver stage parasites (liver schizonts); experiment: P. yoelii liver stage assay in HepG2 cells (EEF immunofluorescence); assay type: cell-based, Plasmodium yoelii; conditions: for IC50: Plasmodium yoelii

COc1cc(N[C@H](C)CCCN)c2nccc(C)c2c1Oc1ccc(Cl)c(Cl)c1 [NPC-1161B]
inhibition at 10 µM (Plasmodium oocysts): > 90%
effect on sporogony / oocyst production (Plasmodium oocysts; species not given): inhibits sporogony; also recorded: inhibit exflagellation in vitro and oocyst production in the mosquito vector; also recorded: inhibited both exflagellation and oocyst production
IC50 (HepG2 cells): 840 ± 460 nM
CI (cytotoxicity index) (HepG2 cells; IC50 HepG2 compared to IC50 parasite): 1.17
transmission-blocking effect on P. berghei oocysts (words) [1]: most notable transmission-blocking activity; also recorded: showed potency
inhibition at 10 µM ([1]; Plasmodium berghei): > 90%
transmission-blocking effect on P. falciparum oocysts (words) [2]: totally blocked transmission
transmission-blocking effect on P. falciparum oocysts (words) ([2]; listed as NPC1161-B): active; also recorded: showed potency
IC50 ([3]; HepG2, box linked to liver schizont, read-out: IC50 (liver schizont, Figure 5)): < 1000 nM
IC50 ([3]; development of P. yoelii liver schizonts following infection of HepG2 cells, read-out: IC50 Parasite): 720 ± 70 nM
potency range against liver stages ([3]; dose response): submicromolar range

CCCCN(CCCC)CCC(O)c1cc2c(Cl)cc(Cl)cc2c2cc(C(F)(F)F)ccc12 (centres unmarked) [halofantrine]
inhibition at 10 µM (Plasmodium oocysts): > 90%
IC50 (HepG2 cells): < 5660 nM
CI (cytotoxicity index) (HepG2 cells; human, 48 h): <2.44
transmission-blocking effect on P. berghei oocysts (words) [1]: impaired sporogony
transmission-blocking effect on P. falciparum oocysts (words) [2]: active; also recorded: impaired sporogony
IC50 ([3]; HepG2, development of P. yoelii liver schizonts following infection of HepG2 cells, read-out: IC50 Parasite): 2320 ± 1350 nM
